Source: patent publication US20140227173A1, “CANCER TREATMENT WITH GAMMA-SECRETASE INHIBITORS” (The Johns Hopkins University, priority 2006, published 2014)
“Also recorded” adds a separate entry of the source.

How the values were obtained:
DAOY:NICD2 [1] = experiment: Flow cytometric analysis of CD133-positive fraction; type: cell-based; details: DAOY:NICD2 expressing truncated Notch2; 2 μM
Description: Consistent with the hypothesis that Notch is important in CSC, gain or loss of pathway activity modulated the size of the CD133-expressing stem-like subpopulation (FIG. 4B). This fraction was elevated to 17.2% in DAOY cells stably transfected with a plasmid encoding the constitutively active Notch2 intracellular domain (DAOY:NICD2). In contrast, Notch pathway inhibition using GSI-18, a potent sulfonamide GSI (21), reduced the CD133-positive stem-like fraction […] to 3.3% (p<0.01). […] 2 μM GSI-18 was used in these experiments, as both mRNA and protein levels of the Notch pathway target Hes1 are reduced over 70% after 48 hours by this concentration of the drug (FIG. 4E).
The DAOY, PFSK, D283 and D425 Med cell lines were obtained from the American Type Culture Collection. The low-passage MB line MB2 was derived from a tumor resected at Johns Hopkins Hospital. […] Cell mass was measured using CellTITER assays according to the manufacturer's instructions (Promega, Madison, Wis.). Cell number and viability were assessed using the Guava PCA and Viacount reagent according to instructions (Guava Technologies, Heyward, Calif.). Soft agar assays were performed as previously described (15) and scored either manually after 4 weeks or using as automated reader after 6 weeks. […] Soft agar assays were performed as previously described, with colonies counted using an automated reader (15). […]

DAOY [2] = experiment: Nestin immunocytochemistry, strongly nestin-positive fraction; type: cell-based; details: 2 μM, 48 hours
DAOY:NICD2 [3] = experiment: Viable cell mass (CellTITER assay); type: cell-based; details: 0.4 μM and 2 μM
Description: (§1) The fact that cultures grew 2-fold or more during the same time period that side population was essentially ablated by Notch pathway blockade provides additional support for the notion that medulloblatoma CSC are especially vulnerable to Notch signaling inhibition.
(§2) The DAOY, PFSK, D283 and D425 Med cell lines were obtained from the American Type Culture Collection. The low-passage MB line MB2 was derived from a tumor resected at Johns Hopkins Hospital. For treatment studies, cell were plated and allowed to grow overnight in MEM (Invitrogen, Carlsbad, Calif.) containing 10% FBS, then media was replaced the next morning with low serum (0.5% FBS) MEM containing GSI dissolved in DMSO. RNA and protein extractions, and all cell-based assays, were performed 48 hours after drug application unless otherwise noted. All experiments with error bars were performed in triplicate and shown as mean values with standard error unless otherwise noted. Cell mass was measured using CellTITER assays according to the manufacturer's instructions (Promega, Madison, Wis.). Cell number and viability were assessed using the Guava PCA and Viacount reagent according to instructions (Guava Technologies, Heyward, Calif.). Soft agar assays were performed as previously described (15) and scored either manually after 4 weeks or using as automated reader after 6 weeks. The constitutively active Akt stable cell line was made by transfecting DAOY cells with myristolated Akt (pCB6-IMy-Akt-HA) or control (pCB6+) plasmids (kind gifts from Susan J. Baker) and selecting and maintaining clones in 0.8 mg/ml G418. Soft agar assays were performed as previously described, with colonies counted using an automated reader (15).

MB cultures = experiment: Viable cell mass (CellTITER assay); type: cell-based
Description: as §1, §2

Akt = Akt phosphorylation and Caspase3 cleavage in GBM neurosphere cells; type: cell-based
Description: (A) Increase of cleaved Caspase 3 and loss of Akt phosphorylation is induced by 0.4 uMor higher levels of GSI-18, while overall levels of Akt and GAPDH are unchanged in DAOY medulloblastoma cells. (B) Cell death in 2 uM GSI-18 is reduced in a representative subclone of DAOY expressing activated Akt as compare to vector transfected cells. (C) Loss of Akt phosphorylation and activation of Caspase3 cleavage is induced by 2 μM or higher levels of GSI-18, while overall levels of Akt and GAPDH are unchanged in GBM neurosphere cells.
(§3) It has been shown that the Notch signaling pathway regulates normal stem cells in the Central Neural System (CNS), and that GBMs contain cancer stem cells (CSCs) with higher Notch activity (Cancer Research, 64:7011-21, 2004; Cancer Cell, 9:391-403, 2006). However, it has not been known if Notch pathway blockade could target CSCs in GBM. […] In the present study, we used GBM neurospheres to examine the effects of Notch pathway blockade in GBM. […] Furthermore, overexpression of an active form of Notch2 (NICD2) increases tumor growth in vitro.

DAOY [4] = experiment: Clonogenic assay in soft agar; type: cell-based; details: equal number of viable cells seeded after 48 hours of treatment; 2 μM; vehicle 2.9%
Description: (§4) A clonogenic assay was used to determine whether cells capable of initiating anchorage-independent colonies were depleted by GSI-18. In vehicle-treated DAOY cultures, 2.9% of cells formed large colonies when seeded in soft agar (FIG. 7H). This number dropped to 0.26% when an equal number of viable cells were counted and seeded after 48 hours of treatment with GSI-18, and increased to 7.2% in the presence of constitutive Notch2 activation. Initiation of tumor xenografts was assayed next, a strategy used in several previous studies to examine the presence or absence of cancer stem cells (6-8). DAOY and DAOY:NICD2 cultures were treated with either 2 μM GSI-18 or vehicle alone, and the viable cells remaining after 48 hours counted using Trypan blue. […] To rule out the possibility that cells were alive but moribund following gamma-secretase inhibition, the experiment was repeated with cells counted after a recovery period.
The DAOY, PFSK, D283 and D425 Med cell lines were obtained from the American Type Culture Collection. […] Cell mass was measured using CellTITER assays according to the manufacturer's instructions (Promega, Madison, Wis.). Cell number and viability were assessed using the Guava PCA and Viacount reagent according to instructions (Guava Technologies, Heyward, Calif.). […] Soft agar assays were performed as previously described, with colonies counted using an automated reader (15).

DAOY [5] = experiment: Xenograft initiation by pretreated cells injected subcutaneously in athymic (nude) mice; type: in vivo
Description: as §4, with “blue. 500,000 viable cells from each group were then injected subcutaneously in athymic (nude) mice. Large xenografts formed at the sites of all 12 control injections.” for “blue.”

[6] = test system: GBM neurosphere line HSR-GBM1a; experiment: CD133 expression in GBM neurosphere culture; type: cell-based; details: 2 μM
Description: (A, B) CD133 is expressed in GBM neurosphere line HSR-GBM1a. (C) The total cell number was decreased upon GSI-18 treatment for 48 h in this line and in the subclones of the line. […] (E) Protein expression of Hes1, a Notch pathway target gene, was reduced upon GSI-18 treatment in GBM neurosphere cells.
as §3

GBM20913 = experiment: Survival of mice bearing intracranial xenografts of pretreated GBM neurosphere cells; type: in vivo; details: vs vehicle (DMSO) treated cells

O=S(=O)(NC1C2CCC1Cc1ccccc1C2)c1cccs1 (stereo not drawn) [GSI-18, [11-endo]-N-(5,6,7,8,9,10-hexahydro-6,9-methanobenzo[α][8]annulen-11-yl)-thiophene-2-sulfonamide]
sensitivity of CD133-positive fraction to the inhibitor (DAOY:NICD2 [1]): insensitive to GSI-18
fold reduction of strongly nestin-positive fraction (DAOY [2]; p<0.01): 4 fold
strongly nestin-positive fraction after treatment (DAOY [2]; untreated 10%): 2.4%
growth (viable cell mass) under NICD2 expression (DAOY:NICD2 [3]): rescued growth
short-term increases in viable cell mass (MB cultures; 0 μM, 0.4 μM, and 2 μM): reduced in a dose-dependent fashion
growth of cultures during Notch pathway blockade (MB cultures; same time period in which side population was ablated): ≥ 2 fold
levels inducing loss of Akt phosphorylation and activation of Caspase3 cleavage (Akt; GBM neurosphere cells): ≥ 2 µM
expression of cleaved caspase 3 and phosphorylated Akt (Akt; GBM neurosphere lines): Increased expression of cleaved caspase 3 and reduced expression of phosphorelated Akt
cells forming large colonies in soft agar (DAOY [4]): 0.26%
xenograft formation from pretreated cells (DAOY [5]; 2 μM, 48 hours pretreatment, 500,000 viable cells injected subcutaneously): only one very small lesion formed among the four sites
tumor formation from pretreated cells after recovery (DAOY [5]; two days of treatment, 24 hours recovery in 10% FBS without inhibitor): unable to form tumors
CD133 expression in the whole culture [6]: significantly reduced; also recorded: reduces expression of CD133
survival of mice with intracranial xenografts from pretreated cells (GBM20913): prolonged survival; also recorded: longer survival
